Measured values taken from patent publication US5436229A, “Bisulfite adducts of arginine aldehydes” (Eli Lilly and Company, priority 1994, dated 1995).
Non-standard residues stand in square brackets, D forms with d. Residues, ends and D or L forms follow the SMILES beside them. dNMeCha = CN[C@H](CC1CCCCC1)C(=O)O

Test system: human plasma
Assay: Human plasma anticoagulation, prothrombin time (PT)
Assay type: biochemical
In short: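 Compounds added across a wide concentration range to human plasma; APTT, PT and TT clotting times measured on a coagulation instrument, bovine thrombin used for plasma assays. Concentration doubling clotting time estimated by linear extrapolation.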

CN[C@H](CC1CCCCC1)C(=O)N1CCC[C@H]1C(=O)N[C@H](C=O)CCCNC(=N)N.Cl [Example 75, N-methyl-D-cyclohexylalanyl-L-Prolinyl-L-Arginine Aldehyde Hydrochloride] (H-[dNMeCha]-Pro-Arg-aldehyde)
2 × Clotting time PT: 720 ng/mL
